The record followed here is ChEMBL document CHEMBL1201862, “PubChem BioAssay data set” (2004).

Values joined by “and” are separate entries in the source; they are usually repeats but may differ in a detail not shown here. Equal values may be shown once.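 Compound exposure: 48 hours, 5 concentrations, 96-well plates. GI50 marks 50% less growth.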 Active and inactive are the calls of the source. Cut-off read from the data, not from the text of the source: active = GI50 up to about 1.1 µM and inactive = higher.

Some test systems named below: MOLT-4; IGROV-1; DU-145; K562; KM12; BT-549; HT-29; SF-268; SN12C; MDA-MB-435; MDA-MB-231; NCI-H23; UACC-62; OVCAR-3; ACHN; SK-OV-3; Malme-3M; CAKI-1; SK-MEL-28.
What all share (assay): inhibition of tumour cell growth, NCI panel, 48 h

As to `COC1OC(C(=O)CP(=O)(OC)OC)C(OCc2ccccc2)C(OCc2ccccc2)C1OCc1ccccc1` (configuration not stated), the GI50 in the experiment with MOLT-4 is 13 µM (inactive) and 20.8 µM (inactive); with IGROV-1, 18.3 µM (inactive) and 18.9 µM (inactive); with DU-145 it was 17.9 µM (inactive) and 16.5 µM (inactive); in the experiment on K562, 31 µM (inactive) and 17.9 µM (inactive); in the experiment on KM12, 18.7 µM (inactive) and 18.9 µM (inactive); in the experiment with BT-549, 17.9 µM (inactive) and 19.5 µM (inactive). The GI50 was 17.2 µM (inactive) and 16 µM (inactive) in the experiment with HT-29; 16.9 µM (inactive) and 17.7 µM (inactive) with SF-268; 16.4 µM (inactive) with SN12C; 18.7 µM (inactive) and 17 µM (inactive) in the experiment with MDA-MB-435; 15.9 µM (inactive) and 16.7 µM (inactive) in the experiment on MDA-MB-231; 15.9 µM (inactive) and 17.5 µM (inactive) in the experiment on NCI-H23. Moreover, the GI50 with UACC-62 was 13.7 µM (inactive) and 14.8 µM (inactive); with OVCAR-3, 15.6 µM (inactive) and 15.1 µM (inactive); in the experiment on ACHN, 16.4 µM (inactive) and 15.9 µM (inactive); in the experiment on SK-OV-3 it was 18.1 µM (inactive) and 17.9 µM (inactive); in the experiment on Malme-3M, 17.9 µM (inactive) and 19.2 µM (inactive); with CAKI-1, 16.3 µM (inactive) and 19.6 µM (inactive). Further, the GI50 in the experiment with SK-MEL-28 was 16.9 µM (inactive) and 21 µM (inactive).
As for `CC(C)(C)OC(=O)N1CCc2[nH][nH]c(=O)c2C1`, the GI50 with MOLT-4, with IGROV-1, with DU-145, with K562, in the experiment with KM12 and in the experiment with BT-549 was > 100 µM (inactive) throughout. For the same molecule, the GI50 in the experiment on HT-29, in the experiment on SF-268, in the experiment on SN12C, with MDA-MB-435, with MDA-MB-231 and in the experiment on NCI-H23 was > 100 µM (inactive) throughout. In addition, the GI50 with UACC-62, in the experiment on OVCAR-3, with SK-OV-3, with Malme-3M, in the experiment on CAKI-1 and with SK-MEL-28 was > 100 µM (inactive) in each case.
On to `CCOC(=O)c1cc2c([nH]1)c(OC(C)=O)cc1c2ccn1Cc1ccccc1`, for which the GI50 in the experiment on MOLT-4, with IGROV-1, in the experiment with DU-145, in the experiment with K562, in the experiment with KM12 and in the experiment with BT-549 was > 100 µM (inactive) each time. The GI50 in the experiment on HT-29, in the experiment with SF-268, with SN12C, in the experiment on MDA-MB-435, in the experiment on MDA-MB-231 and in the experiment with NCI-H23 was > 100 µM (inactive) each time. Further, the GI50 with UACC-62, in the experiment with OVCAR-3, with SK-OV-3, with Malme-3M, with CAKI-1 and in the experiment on SK-MEL-28 was > 100 µM (inactive) each time.
For `CCOC(=O)c1nc2c(Cl)c3ncccc3cc2[nH]c1=O`, the GI50 in the experiment on MOLT-4 is 10.4 µM (inactive); in the experiment on IGROV-1, 53.5 µM (inactive); in the experiment with DU-145, > 100 µM (inactive); in the experiment with K562, 26.1 µM (inactive); in the experiment on KM12, 31.6 µM (inactive); in the experiment with BT-549, 21.5 µM (inactive). Further, the GI50 in the experiment with HT-29 was 38 µM (inactive); in the experiment on SF-268 it was 44.6 µM (inactive); in the experiment on MDA-MB-435, 32.1 µM (inactive); in the experiment with MDA-MB-231, 18.1 µM (inactive); in the experiment on NCI-H23, 29.3 µM (inactive); in the experiment on UACC-62, 14.6 µM (inactive). Further, the GI50 with OVCAR-3 was 26.2 µM (inactive); in the experiment on ACHN, 95.7 µM (inactive); in the experiment on SK-OV-3, > 100 µM (inactive); in the experiment with Malme-3M, > 100 µM (inactive); in the experiment with CAKI-1, 66.5 µM (inactive); in the experiment with SK-MEL-28 it was 59.3 µM (inactive).
Take `NS(=O)(=O)c1ccc2c(c1)OCCOCCOCCOCCO2`: the GI50 with MOLT-4, in the experiment with IGROV-1, in the experiment on DU-145, in the experiment with K562, in the experiment with KM12 and with BT-549 was > 100 µM (inactive) each time. For the same molecule, the GI50 in the experiment with HT-29, in the experiment on SF-268, in the experiment with SN12C, in the experiment with MDA-MB-435, in the experiment on MDA-MB-231 and in the experiment on NCI-H23 was > 100 µM (inactive) each time. Besides, the GI50 in the experiment with UACC-62, with ACHN, in the experiment on SK-OV-3, in the experiment with Malme-3M, in the experiment on CAKI-1 and in the experiment with SK-MEL-28 was > 100 µM (inactive) throughout.
Regarding `Cc1cs/c(=N\C(P(=O)(O)O)P(=O)(O)O)n1C`, the GI50 in the experiment with MOLT-4, in the experiment with IGROV-1, with DU-145, in the experiment on K562, in the experiment with KM12 and in the experiment on BT-549 was > 100 µM (inactive) in each case. Moreover, the GI50 with HT-29, in the experiment with SF-268, in the experiment with MDA-MB-435, in the experiment on MDA-MB-231, with NCI-H23 and in the experiment with UACC-62 was > 100 µM (inactive) in each case. Further, the GI50 in the experiment on OVCAR-3, in the experiment on ACHN, with SK-OV-3, in the experiment on Malme-3M, with CAKI-1 and in the experiment on SK-MEL-28 was > 100 µM (inactive) in each case.
For the molecule `CO[C@@H]1C[C@H](OC(N)=O)[C@@H]2C=C[C@@H]3/C=C(C)/C=C/[C@@H](C)[C@H]([C@H](C)[C@H](O)[C@@H](C)NC(C)=O)OC(=O)/C=C/C=C(C)\C=C\[C@]3(C)[C@@H]2C1`, the GI50 with MOLT-4 was 0.332 µM (active); in the experiment with IGROV-1 it was < 0.01 µM (active); in the experiment with DU-145, < 0.01 µM (active); in the experiment with K562, 0.0101 µM (active); with KM12, < 0.01 µM (active); with BT-549, 2.16 µM (inactive). Further, the GI50 in the experiment with HT-29 is < 0.01 µM (active); with SF-268, 0.767 µM (active); in the experiment with MDA-MB-435, < 0.01 µM (active); with MDA-MB-231, < 0.0316 µM (active); in the experiment on NCI-H23 it was 0.522 µM (active); in the experiment on UACC-62 it was < 0.01 µM (active). In addition, the GI50 in the experiment with OVCAR-3 was < 0.0436 µM (active); in the experiment on ACHN, < 0.01 µM (active); in the experiment on SK-OV-3 it was < 0.0504 µM (active); with Malme-3M, < 0.01 µM (active); in the experiment with CAKI-1, < 0.01 µM (active); in the experiment on SK-MEL-28 it was < 0.01 µM (active).
